Reference: patent US7928060B2, “Amylin family polypeptide-6 (AFP-6) analogs and methods of making and using them” (Amylin Pharmaceuticals, Inc., priority 2004, dated 2011)
Bridge positions count the residues as written; N and C are the ends. Ends that are not written are not given here. Peptide text beside a SMILES is read from it.

What was measured:
[1] = biological target: adrenomedullin receptor (Homo sapiens, UniProt O60895+Q16602); assay: adrenomedullin (ADM) receptor binding assay; conditions: Table 6
adrenomedullin receptor, sequence (Q16602 23-461): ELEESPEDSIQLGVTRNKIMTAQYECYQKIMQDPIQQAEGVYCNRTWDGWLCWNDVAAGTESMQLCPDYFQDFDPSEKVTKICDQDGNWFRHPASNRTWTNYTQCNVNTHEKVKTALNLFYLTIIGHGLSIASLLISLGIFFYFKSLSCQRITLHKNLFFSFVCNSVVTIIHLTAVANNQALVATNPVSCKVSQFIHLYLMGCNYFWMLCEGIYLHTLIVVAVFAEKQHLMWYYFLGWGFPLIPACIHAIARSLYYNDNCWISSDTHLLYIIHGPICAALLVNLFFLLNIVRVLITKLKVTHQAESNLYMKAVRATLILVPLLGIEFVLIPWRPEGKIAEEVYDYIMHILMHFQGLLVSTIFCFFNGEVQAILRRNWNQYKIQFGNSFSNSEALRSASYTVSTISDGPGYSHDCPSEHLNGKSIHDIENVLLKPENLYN
adrenomedullin receptor, sequence (O60895 43-175): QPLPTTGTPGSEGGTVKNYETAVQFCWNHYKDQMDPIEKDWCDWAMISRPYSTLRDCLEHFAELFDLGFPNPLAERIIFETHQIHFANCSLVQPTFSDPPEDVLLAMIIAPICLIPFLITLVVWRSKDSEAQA

[2] = biological target: T1, calcitonin receptor (Rattus norvegicus, UniProt P32214); assay: calcitonin receptor binding assay (rCalcitonin RBA); conditions: Table 6; read-out: CT receptor binding
T1 sequence (P32214 25-516): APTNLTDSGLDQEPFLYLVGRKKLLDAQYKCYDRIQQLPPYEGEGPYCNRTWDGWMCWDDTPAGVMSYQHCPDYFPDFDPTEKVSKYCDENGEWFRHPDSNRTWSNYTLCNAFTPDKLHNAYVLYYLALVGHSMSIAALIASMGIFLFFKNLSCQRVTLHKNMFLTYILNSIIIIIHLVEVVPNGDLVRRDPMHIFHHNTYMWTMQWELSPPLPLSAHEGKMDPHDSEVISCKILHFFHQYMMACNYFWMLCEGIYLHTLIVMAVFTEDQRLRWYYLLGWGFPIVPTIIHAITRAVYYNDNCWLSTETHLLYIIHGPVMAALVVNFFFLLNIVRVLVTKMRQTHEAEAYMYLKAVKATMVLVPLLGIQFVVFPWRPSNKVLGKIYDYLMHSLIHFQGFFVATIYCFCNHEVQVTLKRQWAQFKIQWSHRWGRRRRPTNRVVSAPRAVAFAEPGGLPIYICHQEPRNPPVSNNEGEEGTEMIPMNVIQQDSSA

| Molecule | IC50 [1] [nM] | IC50 [2] [nM] |
| --- | --- | --- |
| H-TQAQLLRVGCSNLSTCQVQNLSHRLWQLMGPAGRQDSAPVDPSSPHSY-NH2 (disulfide 10-16 (inferred)) [compound 20] | 36 | 16 |
| TQAQLLRVGCVLGTCQVQNLSHRLWQLRQDSAPVDPSSPHSY-NH2 (disulfide 10-15 (inferred)) [compound 16] | ≥ 1000 | 22 |
| CSCC[C@H](NC(=O)[C@H](CC(C)C)NC(=O)[C@H](CCC(N)=O)NC(=O)[C@H](Cc1c[nH]c2ccccc12)NC(=O)[C@H](CC(C)C)NC(=O)[C@H](CCCNC(=N)N)NC(=O)[C@H](Cc1c[nH]cn1)NC(=O)[C@H](CO)NC(=O)[C@H](CC(C)C)NC(=O)[C@H](CC(N)=O)NC(=O)[C@H](CCC(N)=O)NC(=O)[C@@H](NC(=O)[C@H](CCC(N)=O)NC(=O)[C@@H]1CSSC[C@H](NC(=O)CNC(=O)[C@@H](NC(=O)[C@@H](N)CCCNC(=N)N)C(C)C)C(=O)N[C@@H](C(C)C)C(=O)N[C@@H](CC(C)C)C(=O)NCC(=O)N[C@@H]([C@@H](C)O)C(=O)N1)C(C)C)C(=O)NCC(=O)N1CCC[C@H]1C(=O)N[C@@H](C)C(=O)NCC(=O)N[C@@H](CCCNC(=N)N)C(=O)N[C@@H](CCC(N)=O)C(=O)N[C@@H](CC(=O)O)C(=O)N[C@@H](CO)C(=O)N[C@@H](C)C(=O)N1CCC[C@H]1C(=O)N[C@H](C(=O)N[C@@H](CC(=O)O)C(=O)N1CCC[C@H]1C(=O)N[C@@H](CO)C(=O)N[C@@H](CO)C(=O)N1CCC[C@H]1C(=O)N[C@@H](Cc1c[nH]cn1)C(=O)N[C@@H](CO)C(=O)N[C@@H](Cc1ccc(O)cc1)C(N)=O)C(C)C [compound 10] | 7.1 | 55 |
| CSCC[C@H](NC(=O)[C@H](CC(C)C)NC(=O)[C@H](CCC(N)=O)NC(=O)[C@H](Cc1c[nH]c2ccccc12)NC(=O)[C@H](CC(C)C)NC(=O)[C@H](CCCNC(=N)N)NC(=O)[C@H](Cc1c[nH]cn1)NC(=O)[C@H](CO)NC(=O)[C@H](CC(C)C)NC(=O)[C@H](CC(N)=O)NC(=O)[C@H](CCC(N)=O)NC(=O)[C@@H](NC(=O)[C@H](CCC(N)=O)NC(=O)[C@@H]1CSSC[C@H](N)C(=O)N[C@@H](C(C)C)C(=O)N[C@@H](CC(C)C)C(=O)NCC(=O)N[C@@H]([C@@H](C)O)C(=O)N1)C(C)C)C(=O)NCC(=O)N1CCC[C@H]1C(=O)N[C@@H](C)C(=O)NCC(=O)N[C@@H](CCCNC(=N)N)C(=O)N[C@@H](CCC(N)=O)C(=O)N[C@@H](CC(=O)O)C(=O)N[C@@H](CO)C(=O)N[C@@H](C)C(=O)N1CCC[C@H]1C(=O)N[C@H](C(=O)N[C@@H](CC(=O)O)C(=O)N1CCC[C@H]1C(=O)N[C@@H](CO)C(=O)N[C@@H](CO)C(=O)N1CCC[C@H]1C(=O)N[C@@H](Cc1c[nH]cn1)C(=O)N[C@@H](CO)C(=O)N[C@@H](Cc1ccc(O)cc1)C(N)=O)C(C)C [compound 12] (H-CVLGTCQVQNLSHRLWQLMGPAGRQDSAPVDPSSPHSY-NH2; disulfide 1-6 (inferred); N-terminus assumed) | 18 | 198 |
| CC(C)C[C@H](NC(=O)[C@H](CCC(N)=O)NC(=O)[C@H](Cc1c[nH]c2ccccc12)NC(=O)[C@H](CC(C)C)NC(=O)[C@H](CCCNC(=N)N)NC(=O)[C@H](Cc1c[nH]cn1)NC(=O)[C@H](CO)NC(=O)[C@H](CC(C)C)NC(=O)[C@H](CC(N)=O)NC(=O)[C@H](CCC(N)=O)NC(=O)[C@@H](NC(=O)[C@H](CCC(N)=O)NC(=O)[C@@H]1CSSC[C@H](NC(=O)CN)C(=O)N[C@@H](CO)C(=O)N[C@@H](CC(N)=O)C(=O)N[C@@H](CC(C)C)C(=O)N[C@@H](CO)C(=O)N[C@@H]([C@@H](C)O)C(=O)N1)C(C)C)C(=O)N[C@@H](CCCNC(=N)N)C(=O)N[C@@H](CCC(N)=O)C(=O)N[C@@H](CC(=O)O)C(=O)N[C@@H](CO)C(=O)N[C@@H](C)C(=O)N1CCC[C@H]1C(=O)N[C@H](C(=O)N[C@@H](CCC(=O)O)C(=O)N1CCC[C@H]1C(=O)N[C@@H](CO)C(=O)N[C@@H](CO)C(=O)N1CCC[C@H]1C(=O)N[C@@H](Cc1c[nH]cn1)C(=O)N[C@@H](CO)C(=O)N[C@@H](Cc1ccc(O)cc1)C(N)=O)C(C)C [compound 38] (H-GCSNLSTCQVQNLSHRLWQLRQDSAPVEPSSPHSY-NH2; disulfide 2-8 (inferred); N-terminus assumed) | – | 17 |
| H-GMVLGTMQVQNLSHRLWQLMGPAGRQDSAPVDPSSPHSY-NH2 [compound 26] | 37 | > 1000 |

The remaining lines, values ahead:

| IC50 [1] [nM] | IC50 [2] [nM] | Molecule |
| --- | --- | --- |
| 120 | > 1000 | H-TQAQLLRVGMVLGTMQVQNLSHRLWQLMGPAGRQDSAPVDPSSPHSY-NH2 [compound 25] |
| ≥ 1000 | 24 | CC(C)C[C@H](NC(=O)[C@H](CCC(N)=O)NC(=O)[C@H](Cc1c[nH]c2ccccc12)NC(=O)[C@H](CC(C)C)NC(=O)[C@H](CCCNC(=N)N)NC(=O)[C@H](Cc1c[nH]cn1)NC(=O)[C@H](CO)NC(=O)[C@H](CC(C)C)NC(=O)[C@H](CC(N)=O)NC(=O)[C@H](CCC(N)=O)NC(=O)[C@@H](NC(=O)[C@H](CCC(N)=O)NC(=O)[C@@H]1CSSC[C@H](NC(=O)CNC(=O)[C@@H](N)C(C)C)C(=O)N[C@@H](C(C)C)C(=O)N[C@@H](CC(C)C)C(=O)NCC(=O)N[C@@H]([C@@H](C)O)C(=O)N1)C(C)C)C(=O)N[C@@H](CCCNC(=N)N)C(=O)N[C@@H](CCC(N)=O)C(=O)N[C@@H](CC(=O)O)C(=O)N[C@@H](CO)C(=O)N[C@@H](C)C(=O)N1CCC[C@H]1C(=O)N[C@H](C(=O)N[C@@H](CC(=O)O)C(=O)N1CCC[C@H]1C(=O)N[C@@H](CO)C(=O)N[C@@H](CO)C(=O)N1CCC[C@H]1C(=O)N[C@@H](Cc1c[nH]cn1)C(=O)N[C@@H](CO)C(=O)N[C@@H](Cc1ccc(O)cc1)C(N)=O)C(C)C [compound 18] (H-VGCVLGTCQVQNLSHRLWQLRQDSAPVDPSSPHSY-NH2; disulfide 3-8 (inferred); N-terminus assumed) |
| 11 | 27 | CSCC[C@H](NC(=O)[C@H](CC(C)C)NC(=O)[C@H](CCC(N)=O)NC(=O)[C@H](Cc1c[nH]c2ccccc12)NC(=O)[C@H](CC(C)C)NC(=O)[C@H](CCCNC(=N)N)NC(=O)[C@H](Cc1c[nH]cn1)NC(=O)[C@H](CO)NC(=O)[C@H](CC(C)C)NC(=O)[C@H](CC(N)=O)NC(=O)[C@H](CCC(N)=O)NC(=O)[C@@H](NC(=O)[C@H](CCC(N)=O)NC(=O)[C@@H]1CSSC[C@H](NC(=O)CN)C(=O)N[C@@H](C(C)C)C(=O)N[C@@H](CC(C)C)C(=O)NCC(=O)N[C@@H]([C@@H](C)O)C(=O)N1)C(C)C)C(=O)NCC(=O)N1CCC[C@H]1C(=O)N[C@@H](C)C(=O)NCC(=O)N[C@@H](CCCNC(=N)N)C(=O)N[C@@H](CCC(N)=O)C(=O)N[C@@H](CC(=O)O)C(=O)N[C@@H](CO)C(=O)N[C@@H](C)C(=O)N1CCC[C@H]1C(=O)N[C@H](C(=O)N[C@@H](CC(=O)O)C(=O)N1CCC[C@H]1C(=O)N[C@@H](CO)C(=O)N[C@@H](CO)C(=O)N1CCC[C@H]1C(=O)N[C@@H](Cc1c[nH]cn1)C(=O)N[C@@H](CO)C(=O)N[C@@H](Cc1ccc(O)cc1)C(N)=O)C(C)C [compound 11] (H-GCVLGTCQVQNLSHRLWQLMGPAGRQDSAPVDPSSPHSY-NH2; disulfide 2-7 (inferred); N-terminus assumed) |
| ≥ 1000 | 9 | CC(C)C[C@@H]1NC(=O)[C@H](CC(N)=O)NC(=O)CNC(=O)[C@@H](NC(=O)CNC(=O)[C@@H](N)C(C)C)CSSC[C@@H](C(=O)N[C@@H](CCC(N)=O)C(=O)N[C@H](C(=O)N[C@@H](CCC(N)=O)C(=O)N[C@@H](CC(N)=O)C(=O)N[C@@H](CC(C)C)C(=O)N[C@@H](CO)C(=O)N[C@@H](Cc2c[nH]cn2)C(=O)N[C@@H](CCCNC(=N)N)C(=O)N[C@@H](CC(C)C)C(=O)N[C@@H](Cc2c[nH]c3ccccc23)C(=O)N[C@@H](CCC(N)=O)C(=O)N[C@@H](CC(C)C)C(=O)N[C@@H](CCCNC(=N)N)C(=O)N[C@@H](CCC(N)=O)C(=O)N[C@@H](CC(=O)O)C(=O)N[C@@H](CO)C(=O)N[C@@H](C)C(=O)N2CCC[C@H]2C(=O)N[C@H](C(=O)N[C@@H](CC(=O)O)C(=O)N2CCC[C@H]2C(=O)N[C@@H](CO)C(=O)N[C@@H](CO)C(=O)N2CCC[C@H]2C(=O)N[C@@H](Cc2c[nH]cn2)C(=O)N[C@@H](CO)C(=O)N[C@@H](Cc2ccc(O)cc2)C(N)=O)C(C)C)C(C)C)NC(=O)[C@H]([C@@H](C)O)NC(=O)[C@H](CO)NC1=O [compound 29] (H-VGCGNLSTCQVQNLSHRLWQLRQDSAPVDPSSPHSY-NH2; disulfide 3-9 (inferred)) |
| 47 | 17 | TQAQLLRVGCNTATCQVQNLSHRLWQLMGPAGRQDSAPVDPSSPHSY-NH2 (disulfide 10-15 (inferred)) [compound 21] |
